We go through 18 compounds from patent publication US20220226508A1, “METHODS AND COMPOSITIONS FOR TREATING EPILEPSY” (THE REGENTS OF THE UNIVERSITY OF CALIFORNIA, priority 2019, published 2022).

The structures appear in SMILES notation. “Also recorded” adds a separate entry of the source. Read-outs that look alike come from different tables or passages of the source.

The subject of assay [1] is scn1lab mutant zebrafish. Put plainly: Locomotion assay of high-velocity seizure-like swim behavior. Type of assay: in vivo, zebrafish (Danio rerio). The conditions noted are these: for effect on seizure-like swim behavior (change in mean velocity): commercial 5-HT2BR/dopamine agonists, three concentrations; for effect on seizure-like swim behavior (change in mean velocity) / suppression of seizure-like swim behavior (change in mean velocity): 30 and 90 min exposure, threshold ≥40%; for suppression of seizure-like swim behavior (change in mean velocity): independently resynthesized compounds retested at 10, 50, 100 and 250 μM; for suppression of seizure-like swim behavior (change in mean swim velocity): initial library screen at 100 μM and 250 μM, 5 dpf larvae, threshold reduction ≥40%. From the text:
Zebrafish maintenance. Zebrafish were raised under standard laboratory conditions in accordance with requirements outlined in the Guide for the Care and Use of Animals (ebrary Inc., 2011) and experiments were approved by the Institutional Animal Care and Use Committee (protocol #AN108659-03). Embryos were obtained by natural spawning of scn1lab (didy^s552) heterozygous animals that had been outcrossed to TL strain. Homozygous scn1lab mutants (n=2500) have dispersed melanosomes and appear visibly darker by 3 dpf compared to WT larvae.
Seizure monitoring. At 5 dpf individual zebrafish larvae were placed into a single well of a clear flat-bottomed 96-well microplate containing embryo media. Larvae were selected randomly as sex determination is not possible at this stage of development. All drug screening experiments were conducted in an unbiased manner by investigators blinded to the test compounds and all files coded for post hoc analysis. Microplates were placed inside the DanioVision and acclimated for 20 min at room temperature. Locomotion plots were obtained for each well at a recording epoch of 10 min using EthoVision XT software (DanioVision, Noldus Information Technology). Seizure scoring was performed using the following three-stage scale established for pentylenetetrazole-induced seizures: Stage 0, no or very little swim activity; Stage I, increased, brief bouts of swim activity; Stage II, rapid “whirlpool-like” circling swim behavior; and Stage III, paroxysmal whole-body clonus-like convulsions, and a brief loss of posture. WT fish are typically scored at Stage 0 or I. Plots were analyzed for distance travelled (in millimeters) and mean velocity (in millimeters per second). After 90 mins of drug exposure larvae were examined for toxic side-effects. Compounds that decreased or stopped the larva heartbeat, or reduced or eliminated the escape response when touched, were considered toxic.
Statistics. Data are presented as the mean±standard error of the mean (SEM), unless otherwise stated. For behavior analysis, the threshold for a change in mean swim velocity ≥40% (>1.5×SD of 250 control treated scn1lab) is considered significant. For comparison between more than two groups one-way ANOVA analysis was used. […] Differences considered statistically significant are indicated with asterisks (*P<0.05; **P<0.01).

For assay [2], the target named is T1, human 5-HT2CR (Homo sapiens, UniProt P28335).
T1 construct: expressed in transfected cells
T1 sequence (P28335 33-458): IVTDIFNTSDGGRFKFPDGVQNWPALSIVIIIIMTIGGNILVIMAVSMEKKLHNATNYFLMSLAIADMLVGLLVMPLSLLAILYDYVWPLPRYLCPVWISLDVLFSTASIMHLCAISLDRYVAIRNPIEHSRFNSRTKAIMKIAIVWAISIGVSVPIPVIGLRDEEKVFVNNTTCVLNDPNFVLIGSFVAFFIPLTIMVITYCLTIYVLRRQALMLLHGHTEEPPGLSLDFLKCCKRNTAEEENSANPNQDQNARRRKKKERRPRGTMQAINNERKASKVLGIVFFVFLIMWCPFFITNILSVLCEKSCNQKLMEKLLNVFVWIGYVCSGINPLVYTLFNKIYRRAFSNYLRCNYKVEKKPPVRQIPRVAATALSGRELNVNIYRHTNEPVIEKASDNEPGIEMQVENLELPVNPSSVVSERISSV

The target of assay [3] is T2, human 5-HT2BR (Homo sapiens, UniProt P41595).
T2 construct: expressed in transfected cells

Assay [4] addresses T3, human 5-HT2AR (Homo sapiens, UniProt P28223).
T3 construct: expressed in transfected cells
To be noted: read-out: binding affinity (Ki) 5-HT2A / 5-HT2AR, cited from earlier work.

Assay [5] deals with T3, human 5-HT2AR. Briefly: biochemical. Type of assay: binding. To be noted: read-out: binding affinity (Ki) 5-HT2AR. As for the experimental part: (§1) Receptor Binding Assays. In vitro binding assay and Ki data were performed by the US National Institute of Mental Health Psychoactive Drug Screening Program (NIMH PDSP). Drugs were screened against recombinant, stably expressed human 5-HT2AR, 5-HT2BR, 5-HT2CR and H1. For specific binding assays please refer to detailed procedures at https://pdspdb.unc.edu/pdspWeb/ (Besnard, J. et al., Nature, 492, 215-220, 2012).

Assay [6] deals with T2, human 5-HT2BR. Put plainly: biochemical. The format is binding. The conditions noted are these: for Ki: read-out: binding affinity (Ki) 5-HT2BR; for specificity / selectivity for 5-HT2BR over other 5-HT2R subtypes: radioligand binding. As for the experimental part:
as §1

The target in assay [7] is T1, human 5-HT2CR. Put plainly: Radioligand binding assay (NIMH PDSP), 5-HT2CR. The conditions noted are these: read-out: binding affinity (Ki) 5-HT2CR. As for the experimental part: as §1
Assay [8] concerns the target human H1 receptor (Homo sapiens, UniProt P35367). Briefly: Radioligand binding assay (NIMH PDSP), H1. The arrangement: expressed in transfected cells. To be noted: read-out: binding affinity (Ki) H1. The protocol:
as §1

The mark [9] stands for this setting: known drugs and commercial compounds; read-out: binding affinity (Ki) 5-HT2C / 5-HT2CR; cited from earlier work.
Where [10] appears, read: known drugs and commercial compounds; read-out: binding affinity (Ki) 5-HT2B / 5-HT2BR; cited from earlier work.
Setting [11] is: known drugs and commercial compounds.
Where [12] appears, read: clemizole analogs, recombinant human receptor.

T3 sequence (P28223 whole entry): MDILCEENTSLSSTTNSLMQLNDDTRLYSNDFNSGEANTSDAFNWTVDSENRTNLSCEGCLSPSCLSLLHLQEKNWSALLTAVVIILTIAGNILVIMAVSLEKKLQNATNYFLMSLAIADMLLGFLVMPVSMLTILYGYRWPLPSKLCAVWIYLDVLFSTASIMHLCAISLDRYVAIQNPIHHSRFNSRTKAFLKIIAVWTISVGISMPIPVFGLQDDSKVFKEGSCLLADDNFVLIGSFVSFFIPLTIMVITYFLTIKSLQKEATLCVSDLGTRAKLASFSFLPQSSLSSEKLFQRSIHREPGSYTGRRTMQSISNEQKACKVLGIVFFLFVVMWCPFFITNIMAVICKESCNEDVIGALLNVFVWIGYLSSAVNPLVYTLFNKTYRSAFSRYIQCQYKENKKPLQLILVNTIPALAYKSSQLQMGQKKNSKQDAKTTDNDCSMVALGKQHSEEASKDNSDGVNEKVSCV
human H1 receptor, sequence (P35367 whole entry): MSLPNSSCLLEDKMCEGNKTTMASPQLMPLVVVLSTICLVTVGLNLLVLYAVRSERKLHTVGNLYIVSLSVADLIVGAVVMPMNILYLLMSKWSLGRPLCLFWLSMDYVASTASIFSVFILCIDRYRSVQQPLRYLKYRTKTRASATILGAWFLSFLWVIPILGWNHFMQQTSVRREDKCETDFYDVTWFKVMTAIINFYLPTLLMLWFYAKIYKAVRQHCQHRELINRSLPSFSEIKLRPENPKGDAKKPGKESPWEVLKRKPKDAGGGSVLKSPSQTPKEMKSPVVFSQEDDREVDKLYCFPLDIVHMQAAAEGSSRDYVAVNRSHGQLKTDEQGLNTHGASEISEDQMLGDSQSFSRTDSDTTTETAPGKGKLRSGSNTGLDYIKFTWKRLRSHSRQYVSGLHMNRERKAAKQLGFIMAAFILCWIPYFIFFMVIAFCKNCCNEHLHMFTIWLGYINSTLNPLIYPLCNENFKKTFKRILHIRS
T2 sequence (P41595 whole entry): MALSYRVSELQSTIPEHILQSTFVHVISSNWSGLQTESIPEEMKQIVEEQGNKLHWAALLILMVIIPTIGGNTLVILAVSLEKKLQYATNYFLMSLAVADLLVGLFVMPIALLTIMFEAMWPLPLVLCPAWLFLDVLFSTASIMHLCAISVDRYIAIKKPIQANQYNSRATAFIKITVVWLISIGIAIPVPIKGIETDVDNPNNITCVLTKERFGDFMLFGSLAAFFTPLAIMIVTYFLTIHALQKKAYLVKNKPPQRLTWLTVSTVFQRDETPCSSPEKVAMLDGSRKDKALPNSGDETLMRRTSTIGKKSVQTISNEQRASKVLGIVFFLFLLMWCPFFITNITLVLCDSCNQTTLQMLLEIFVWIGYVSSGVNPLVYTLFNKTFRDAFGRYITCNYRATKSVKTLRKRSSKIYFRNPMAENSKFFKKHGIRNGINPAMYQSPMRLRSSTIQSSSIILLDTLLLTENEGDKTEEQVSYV

On to `CC(N)Cc1c[nH]c2ccc(OCc3cccs3)cc12` (centres unmarked) [BW-723C86, reference compound], for which, in assay [1], the “effect on seizure-like swim behavior (change in mean velocity)” value (“effect … (change in mean velocity)” below) was “showed a decrease in seizure-like swim behavior, but also failed to reach our significance threshold”.
On to `Clc1cccc(COc2cncc(N3CCNCC3)n2)c1` [CP-809,101], for which the Ki in assay [2] (setting [9]) is 64 nM; in assay [3] (setting [10]) it was 6 nM; in assay [4] (setting [11]) it was 1.6 nM. For the same compound, the “effect … (change in mean velocity)” value in assay [1] is reported as “biphasic response”.
For `Clc1ccc(Cn2c(CC3CCCC3)nc3ccccc32)cc1` [Compound 1, 1-[(4-Chlorophenyl)methyl]-2-(cyclopentylmethyl)-1H-benzimidazole], the Ki is greater than 10000 nM in assay [5], 501 nM in assay [6] (setting [12]) and 2730 nM in assay [7] (setting [12]).
With `c1ccc(Cn2c(CN3CCCC3)nc3ccccc32)cc1` [Compound 3], the Ki in assay [5] came to 327 nM; in assay [6] it was 83 nM; in assay [8], 4.8 nM; in assay [7], 292 nM.
`CCCn1c(CN2CCCC2)nc2ccccc21` [Compound 5]: the Ki in assay [5] was greater than 10000 nM; in assay [6], 219 nM; in assay [8], 362 nM; in assay [7], greater than 10000 nM. Also, the “specificity / selectivity for 5-HT2BR over other 5-HT2R subtypes” value in assay [6] is listed as “specific binding for 5HT2BR; also recorded: selectivity for 5-HT2BR”. Also, in assay [1], the “suppression of seizure-like swim behavior (change in mean velocity)” value is recorded as “no significant effect on the high-speed seizure-like behavior; also recorded: no significant effect on the swim behavior”. Moreover, in assay [1], the “suppression of seizure-like swim behavior (change in mean swim velocity)” value is “no significant effect on swim behavior”.
As for `Fc1ccc(Cn2c(CN3CCCC3)nc3ccccc32)cc1` [Compound 7], the Ki in assay [5] was 15 nM; in assay [6], 46 nM; in assay [8], 1 nM; in assay [7] it was 345 nM.
`Clc1ccc(Cn2c(CN3CCCC3)cc3ccccc32)cc1` [Compound 11, 1-[(4-Chlorophenyl)methyl]-2-[(pyrrolidin-1-yl)methyl]-1H-indole]: the Ki amounted to 631 nM in assay [5] (setting [12]), 134 nM in assay [6] (setting [12]), 6.4 nM in assay [8] (setting [12]) and 248 nM in assay [7] (setting [12]).
Take `Nc1ccc(Cn2c(CN3CCCC3)nc3ccccc32)cc1` [Compound 14]: the Ki was greater than 10000 nM in assay [5], 606 nM in assay [6], 27 nM in assay [8] and greater than 10000 nM in assay [7]. The “specificity / selectivity for 5-HT2BR over other 5-HT2R subtypes” value in assay [6] was “specific binding for 5HT2BR; also recorded: selectivity for 5-HT2BR”. Besides, in assay [1], the “suppression of seizure-like swim behavior (change in mean velocity)” value was “no significant effect on the high-speed seizure-like behavior; also recorded: no significant effect on the swim behavior”. For the same compound, in assay [1], the “suppression of seizure-like swim behavior (change in mean swim velocity)” value was “no significant effect on swim behavior”.
Regarding `Clc1ccc(Cn2c(CN3CCCCC3)nc3ccccc32)cc1` [Compound 22], the Ki in assay [5] came to 623 nM; in assay [6], 306 nM; in assay [8], 8.5 nM; in assay [7], 4580 nM.
As for `CCN(CC)Cc1nc2ccccc2n1Cc1ccc(Cl)cc1` [Compound 24, ({1-[(4-Chlorophenyl)methyl]-1H-1,3-benzodiazol-2-yl}methyl)diethylamine], the Ki was 1260 nM in assay [5] (setting [12]), 115 nM in assay [6] (setting [12]), 3.7 nM in assay [8] (setting [12]) and 1410 nM in assay [7] (setting [12]).
Consider `CN1CCN(Cc2nc3ccccc3n2Cc2ccc(Cl)cc2)CC1` [Compound 26], for which the Ki in assay [5] stood at 316 nM; in assay [6], 20 nM; in assay [8], 1.2 nM; in assay [7] it was 313 nM.
The matching figures for `Clc1ccc(Cn2c(CN3CCSC3)nc3ccccc32)cc1` [Compound 28]: greater than 10000 nM, 464 nM, 44 nM and 1080 nM.
Turning to `C[C@H](N)Cn1ccc2cc(F)c(Cl)cc21` [Ro 60-0175], the Ki in assay [2] (setting [9]) is 9.1 nM; in assay [3] (setting [10]), 4.3 nM; in assay [4] it was 37.2 nM. Besides, the “effect … (change in mean velocity)” value in assay [1] was “consistently decreased mean velocity and was borderline effective after 90 mins of drug exposure”.
With `CN(C)C1CCc2cc(O)c(O)cc2C1` (centres unmarked) [TL-99], the Ki was 2290 nM in assay [2] (setting [9]), 2040 nM in assay [3] (setting [10]) and 2340 nM in assay [4] (setting [11]). Further, the “effect … (change in mean velocity)” value in assay [1] is “failed to elicit any behavioral effect”.
On to `CN1CCc2cccc3c2[C@H]1Cc1ccc(O)c(O)c1-3` [apomorphine, reference compound], for which the “effect … (change in mean velocity)” value in assay [1] is reported as “significantly increased mean swim velocity”.
In the case of `C=CCN1C[C@H](C(=O)N(CCCN(C)C)C(=O)NCC)C[C@@H]2c3cccc4[nH]cc(c34)C[C@H]21` [cabergoline], the Ki is 692 nM in assay [2] (setting [9]), 1.2 nM in assay [3] (setting [10]) and 6.17 nM in assay [4] (setting [11]). Also, the “effect on convulsive swim behavior” value in assay [1] (250 μM) is on record as “significantly reduced convulsive swim-behavior”.
As for `Cl.Clc1cccc(N2CCNCC2)c1` [mCPP, 1-(3-Chlorophenyl)piperazine hydrochloride, reference compound], in assay [1], the “effect … (change in mean velocity)” value is reported as “biphasic response”.
Take `CC(N)Cc1cccc(C(F)(F)F)c1` (centres unmarked) [norfenfluramine]: the Ki is 306 nM in assay [2] (read-out: binding affinity (Ki) 5-HT2C / 5-HT2CR; known drugs and commercial compounds; cited from earlier work); 18 nM in assay [3] (read-out: binding affinity (Ki) 5-HT2B / 5-HT2BR; known drugs and commercial compounds; cited from earlier work); 194 nM in assay [4]. For the same compound, in assay [1], the “effect … (change in mean velocity)” value is “suppressed convulsive swim behaviors in a concentration-dependent manner”.
